How the values were obtained:
[1] = biological target: Phosphatidylinositol 4,5-bisphosphate 3-kinase catalytic subunit gamma isoform (Homo sapiens, UniProt P48736); experiment: Inhibition of human PI3Kgamma by ADP-Glo kinase assay
[2] = biological target: Phosphatidylinositol 4-phosphate 3-kinase C2 domain-containing subunit beta (Homo sapiens, UniProt O00750); experiment: Inhibition of human PIK3C2beta by ADP-Glo kinase assay
[3] = Selectivity index, ratio of IC50 for human PI3Kgamma to IC50 for recombinant His-tagged Plasmodium falciparum 3D7 PI4K expressed in baculovirus infected Sf9 cells
Plasmodium falciparum = experiment: Antimalarial activity against pyrimethamine/chloroquine resistant Plasmodium falciparum C2A infected in human O+ erythrocytes incubated for 72 hrs by SYBR Green 1 dye based fluorescence assay; format: functional, organism-based; settings: Erythrocyte
[4] = Mean residence time (0 to t) in mouse at 10 mg/kg, po; format: ADME, organism-based; settings: in vivo
[5] = Oral bioavailability in Sprague-Dawley rat at 10 mg/kg; format: ADME, organism-based; settings: in vivo

Sequence of Phosphatidylinositol 4-phosphate 3-kinase C2 domain-containing subunit beta (O00750 whole entry, the tested form may be a part): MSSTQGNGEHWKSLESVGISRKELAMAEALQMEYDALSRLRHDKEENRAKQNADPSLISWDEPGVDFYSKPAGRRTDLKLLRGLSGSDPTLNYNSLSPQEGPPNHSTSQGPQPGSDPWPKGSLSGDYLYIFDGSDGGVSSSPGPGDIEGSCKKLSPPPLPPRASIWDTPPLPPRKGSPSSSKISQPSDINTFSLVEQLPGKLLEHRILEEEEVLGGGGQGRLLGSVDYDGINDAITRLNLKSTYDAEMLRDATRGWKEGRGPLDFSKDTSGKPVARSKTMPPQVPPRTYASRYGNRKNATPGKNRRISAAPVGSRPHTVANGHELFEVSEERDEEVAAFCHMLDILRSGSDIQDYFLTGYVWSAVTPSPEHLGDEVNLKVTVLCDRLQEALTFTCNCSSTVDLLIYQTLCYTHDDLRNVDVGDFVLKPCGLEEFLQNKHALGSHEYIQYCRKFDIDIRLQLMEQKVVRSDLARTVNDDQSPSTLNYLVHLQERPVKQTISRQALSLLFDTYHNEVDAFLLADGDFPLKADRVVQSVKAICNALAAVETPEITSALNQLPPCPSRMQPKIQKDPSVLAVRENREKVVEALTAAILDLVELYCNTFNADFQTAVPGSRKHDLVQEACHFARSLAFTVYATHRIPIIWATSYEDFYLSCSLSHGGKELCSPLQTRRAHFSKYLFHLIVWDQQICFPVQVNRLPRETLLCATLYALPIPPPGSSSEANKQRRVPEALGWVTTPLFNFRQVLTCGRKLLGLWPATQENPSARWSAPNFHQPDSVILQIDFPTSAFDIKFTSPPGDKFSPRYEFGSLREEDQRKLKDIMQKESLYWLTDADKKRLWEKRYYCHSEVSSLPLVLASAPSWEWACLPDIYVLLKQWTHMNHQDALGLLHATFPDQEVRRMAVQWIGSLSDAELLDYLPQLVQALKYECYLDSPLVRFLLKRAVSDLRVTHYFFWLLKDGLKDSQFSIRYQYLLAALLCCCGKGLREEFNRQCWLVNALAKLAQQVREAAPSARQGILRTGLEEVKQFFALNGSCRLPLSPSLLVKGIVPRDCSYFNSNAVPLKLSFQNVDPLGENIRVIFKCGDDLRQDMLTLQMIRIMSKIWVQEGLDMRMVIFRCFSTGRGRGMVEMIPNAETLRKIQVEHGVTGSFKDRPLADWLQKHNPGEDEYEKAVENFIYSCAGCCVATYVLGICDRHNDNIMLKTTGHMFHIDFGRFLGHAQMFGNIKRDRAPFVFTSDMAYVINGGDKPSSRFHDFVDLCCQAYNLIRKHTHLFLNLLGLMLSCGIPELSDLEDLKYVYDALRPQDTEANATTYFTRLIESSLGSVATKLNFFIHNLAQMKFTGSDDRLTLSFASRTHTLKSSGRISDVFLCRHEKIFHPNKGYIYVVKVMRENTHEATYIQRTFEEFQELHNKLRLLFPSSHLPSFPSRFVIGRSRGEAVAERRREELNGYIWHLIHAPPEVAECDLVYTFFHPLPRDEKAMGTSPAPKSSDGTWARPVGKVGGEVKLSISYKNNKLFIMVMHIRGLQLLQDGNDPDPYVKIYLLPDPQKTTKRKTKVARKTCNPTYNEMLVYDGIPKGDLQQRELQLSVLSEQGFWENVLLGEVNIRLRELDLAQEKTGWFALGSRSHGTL
Sequence of Phosphatidylinositol 4,5-bisphosphate 3-kinase catalytic subunit gamma isoform (P48736 whole entry, the tested form may be a part, canonical isoform): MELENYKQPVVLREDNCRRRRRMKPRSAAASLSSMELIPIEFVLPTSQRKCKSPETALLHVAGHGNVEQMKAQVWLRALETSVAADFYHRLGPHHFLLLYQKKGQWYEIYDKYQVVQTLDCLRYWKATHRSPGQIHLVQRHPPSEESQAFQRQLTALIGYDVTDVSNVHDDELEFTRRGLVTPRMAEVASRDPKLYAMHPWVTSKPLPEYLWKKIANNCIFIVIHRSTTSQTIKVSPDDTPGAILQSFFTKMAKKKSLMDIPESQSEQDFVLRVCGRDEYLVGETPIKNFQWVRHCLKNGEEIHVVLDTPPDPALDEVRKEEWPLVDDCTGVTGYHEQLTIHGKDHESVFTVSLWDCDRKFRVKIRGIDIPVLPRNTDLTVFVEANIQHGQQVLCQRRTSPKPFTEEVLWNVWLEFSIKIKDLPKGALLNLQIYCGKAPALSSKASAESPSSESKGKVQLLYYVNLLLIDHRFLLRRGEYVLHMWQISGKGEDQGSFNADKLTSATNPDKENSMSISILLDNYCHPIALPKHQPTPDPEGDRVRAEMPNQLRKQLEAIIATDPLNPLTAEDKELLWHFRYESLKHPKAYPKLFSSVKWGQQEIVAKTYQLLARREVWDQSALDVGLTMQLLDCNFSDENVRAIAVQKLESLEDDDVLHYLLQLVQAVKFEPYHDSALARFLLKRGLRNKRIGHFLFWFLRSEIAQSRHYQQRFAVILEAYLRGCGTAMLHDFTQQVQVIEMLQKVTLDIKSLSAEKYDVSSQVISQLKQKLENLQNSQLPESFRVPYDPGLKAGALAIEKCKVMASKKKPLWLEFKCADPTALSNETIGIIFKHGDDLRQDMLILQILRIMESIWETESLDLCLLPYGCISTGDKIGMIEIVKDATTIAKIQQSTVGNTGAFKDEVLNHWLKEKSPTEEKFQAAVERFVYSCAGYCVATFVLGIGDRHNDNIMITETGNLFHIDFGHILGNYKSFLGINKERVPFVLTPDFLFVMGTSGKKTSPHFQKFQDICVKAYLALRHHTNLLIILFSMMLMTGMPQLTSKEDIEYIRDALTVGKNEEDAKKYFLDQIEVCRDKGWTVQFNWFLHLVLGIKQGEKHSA

Q: Which results are given for CNC(=O)c1cncc(-c2cnc(Cl)c(NS(=O)(=O)c3ccccc3)c2)c1?
A: IC50 [1]: 324 nM; IC50 [2]: > 10000 nM; Ratio IC50 [3]: 100; EC50 (Plasmodium falciparum): 28 nM; MRT last [4]: 4.4 h; bioavailability [5]: 89%

— ChEMBL document CHEMBL4680147, “Discovery of 6'-chloro-N-methyl-5'-(phenylsulfonamido)-[3,3'-bipyridine]-5-carboxamide (CHMFL-PI4K-127) as a novel Plasmodium falciparum PI(4)K inhibitor with potent antimalarial activity against both blood and liver stages of Plasmodium” (Eur J Med Chem, 2020)
